Measured values reported in ChEMBL document CHEMBL5150049, “The discovery of (1R, 3R)-1-(3-chloro-5-fluorophenyl)-3-(hydroxymethyl)-1,2,3,4-tetrahydroisoquinoline-6-carbonitrile, a potent and selective agonist of human transient receptor potential cation channel subfamily m member 5 (TRPM5) and evaluation of as a potential gastrointestinal prokinetic agent” (Bioorg Med Chem, 2022).
Converted amounts (≈) assume the structure as drawn. Each block holds one compound with its values, some of them ahead of it.

What was measured:
[1] = Half-life in C57BL/6 mouse at 100 mg/kg, po; format: ADME, organism-based; conditions: in vivo
[2] = Metabolic stability in human liver microsomes assessed as half life; format: ADME, Microsome
[3] = target: T1, Transient receptor potential cation channel subfamily M member 5 (Homo sapiens, UniProt Q9NZQ8); test: Agonist activity at human TRPM5 expressed in CHO-K1 cells assessed as increase in relative fluorescence unit measured for 2 mins by FLIPR based membrane potential assay; format: cell-based
T1 sequence (Q9NZQ8 whole entry): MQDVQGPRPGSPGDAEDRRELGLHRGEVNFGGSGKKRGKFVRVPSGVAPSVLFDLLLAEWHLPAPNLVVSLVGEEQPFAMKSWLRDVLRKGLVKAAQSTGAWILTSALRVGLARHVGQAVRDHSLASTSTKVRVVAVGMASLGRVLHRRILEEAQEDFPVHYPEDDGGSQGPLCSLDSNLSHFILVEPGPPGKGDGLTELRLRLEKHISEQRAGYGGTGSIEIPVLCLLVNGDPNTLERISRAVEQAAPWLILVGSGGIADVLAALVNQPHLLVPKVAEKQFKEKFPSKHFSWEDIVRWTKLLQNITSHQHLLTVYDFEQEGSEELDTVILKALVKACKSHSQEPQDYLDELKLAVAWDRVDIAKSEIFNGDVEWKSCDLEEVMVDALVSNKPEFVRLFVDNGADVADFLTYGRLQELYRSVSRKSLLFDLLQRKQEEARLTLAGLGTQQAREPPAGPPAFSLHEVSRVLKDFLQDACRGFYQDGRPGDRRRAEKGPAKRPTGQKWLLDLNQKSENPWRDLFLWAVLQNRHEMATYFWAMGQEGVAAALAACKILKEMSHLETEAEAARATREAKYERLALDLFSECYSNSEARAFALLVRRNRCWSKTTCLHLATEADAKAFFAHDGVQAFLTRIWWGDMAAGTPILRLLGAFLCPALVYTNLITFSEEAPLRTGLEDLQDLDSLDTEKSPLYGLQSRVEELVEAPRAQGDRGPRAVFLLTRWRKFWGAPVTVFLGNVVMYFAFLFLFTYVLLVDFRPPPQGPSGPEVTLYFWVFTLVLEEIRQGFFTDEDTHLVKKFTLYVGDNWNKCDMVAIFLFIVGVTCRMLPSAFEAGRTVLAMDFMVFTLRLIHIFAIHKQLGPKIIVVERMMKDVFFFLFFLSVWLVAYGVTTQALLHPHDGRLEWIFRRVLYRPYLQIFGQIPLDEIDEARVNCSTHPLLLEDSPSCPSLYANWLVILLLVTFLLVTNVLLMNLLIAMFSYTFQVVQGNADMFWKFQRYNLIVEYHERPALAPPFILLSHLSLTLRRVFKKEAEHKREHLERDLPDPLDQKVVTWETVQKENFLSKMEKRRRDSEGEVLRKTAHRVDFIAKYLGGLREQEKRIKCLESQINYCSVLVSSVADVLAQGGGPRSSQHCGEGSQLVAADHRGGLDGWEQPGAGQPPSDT

[4] = target: Transient receptor potential cation channel subfamily M member 4 (Homo sapiens, UniProt Q8TD43); test: Agonist activity at human TRPM4 expressed in CHO-K1 cells assessed as increase in relative fluorescence unit by measuring membrane potential by FLIPR assay; format: cell-based
[5] = Clearance in C57BL/6 mouse at 1 mg/kg, iv; format: ADME, organism-based; conditions: in vivo
[6] = Volume of distribution at steady state in C57BL/6 mouse at 1 mg/kg, iv; format: ADME, organism-based; conditions: in vivo
[7] = Half-life in C57BL/6 mouse at 1 mg/kg, iv; format: ADME, organism-based; conditions: in vivo
[8] = Half-life in C57BL/6 mouse at 10 mg/kg, po; format: ADME, organism-based; conditions: in vivo
[9] = Half-life in C57BL/6 mouse at 30 mg/kg, po; format: ADME, organism-based; conditions: in vivo
[10] = Half-life in C57BL/6 mouse at 300 mg/kg, po; format: ADME, organism-based; conditions: in vivo
[11] = Cmax in C57BL/6 mouse at 10 mg/kg, po; format: ADME, organism-based; set-up: dose 10 mg/kg, route po; conditions: in vivo
[12] = Cmax in C57BL/6 mouse at 30 mg/kg, po; format: ADME, organism-based; set-up: dose 30 mg/kg, route po; conditions: in vivo
[13] = AUC (0 to infinity) in C57BL/6 mouse at 10 mg/kg, po; format: ADME, organism-based; set-up: time infinity, dose 10 mg/kg, route po; conditions: in vivo
[14] = Cmax in C57BL/6 mouse at 100 mg/kg, po; format: ADME, organism-based; set-up: dose 100 mg/kg, route po; conditions: in vivo
[15] = Cmax in C57BL/6 mouse at 300 mg/kg, po; format: ADME, organism-based; set-up: dose 300 mg/kg, route po; conditions: in vivo
[16] = AUC (0 to infinity) in C57BL/6 mouse at 1 mg/kg, iv; format: ADME, organism-based; set-up: time infinity, dose 1 mg/kg, route iv; conditions: in vivo
[17] = AUC (0 to infinity) in C57BL/6 mouse at 30 mg/kg, po; format: ADME, organism-based; set-up: time infinity, dose 30 mg/kg, route po; conditions: in vivo
[18] = AUC (0 to infinity) in C57BL/6 mouse at 100 mg/kg, po; format: ADME, organism-based; set-up: time infinity, dose 100 mg/kg, route po; conditions: in vivo
[19] = AUC (0 to infinity) in C57BL/6 mouse at 300 mg/kg, po; format: ADME, organism-based; set-up: time infinity, dose 300 mg/kg, route po; conditions: in vivo
[20] = Oral bioavailability in C57BL/6 mouse at 10 mg/kg; format: ADME, organism-based; conditions: in vivo
[21] = Oral bioavailability in C57BL/6 mouse at 30 mg/kg; format: ADME, organism-based; conditions: in vivo
[22] = Oral bioavailability in C57BL/6 mouse at 100 mg/kg; format: ADME, organism-based; conditions: in vivo
[23] = Oral bioavailability in C57BL/6 mouse at 300 mg/kg; format: ADME, organism-based; conditions: in vivo
[24] = Solubility of the compound in JP1 solution at pH 1.2; format: physicochemical
[25] = Solubility of the compound in JP2 solution at pH 6.8; format: physicochemical
[26] = Apparent permeability across apical to basolateral side in human Caco-2 cells; format: ADME, cell-based
[27] = Apparent permeability across basolateral to apical side in human Caco-2 cells; format: ADME, cell-based
[28] = Unbound fraction in human plasma; format: ADME, cell-free
[29] = Unbound fraction in mouse plasma; format: ADME, cell-free
[30] = Area under […] in C57BL/6 mouse at 30 mg/kg administered twice a day; format: ADME, organism-based; conditions: in vivo
[31] = Area under […] in C57BL/6 mouse at 100 mg/kg administered twice a day; format: ADME, organism-based; conditions: in vivo
[32] = Area under […] in C57BL/6 mouse at 300 mg/kg administered twice a day; format: ADME, organism-based; conditions: in vivo
[33] = target: T2, Transient receptor potential cation channel subfamily M member 5 (Mus musculus, UniProt Q9JJH7); test: Agonist activity at mouse TRPM5 expressed in CHO-K1 cells; format: cell-based
T2 sequence (Q9JJH7 whole entry): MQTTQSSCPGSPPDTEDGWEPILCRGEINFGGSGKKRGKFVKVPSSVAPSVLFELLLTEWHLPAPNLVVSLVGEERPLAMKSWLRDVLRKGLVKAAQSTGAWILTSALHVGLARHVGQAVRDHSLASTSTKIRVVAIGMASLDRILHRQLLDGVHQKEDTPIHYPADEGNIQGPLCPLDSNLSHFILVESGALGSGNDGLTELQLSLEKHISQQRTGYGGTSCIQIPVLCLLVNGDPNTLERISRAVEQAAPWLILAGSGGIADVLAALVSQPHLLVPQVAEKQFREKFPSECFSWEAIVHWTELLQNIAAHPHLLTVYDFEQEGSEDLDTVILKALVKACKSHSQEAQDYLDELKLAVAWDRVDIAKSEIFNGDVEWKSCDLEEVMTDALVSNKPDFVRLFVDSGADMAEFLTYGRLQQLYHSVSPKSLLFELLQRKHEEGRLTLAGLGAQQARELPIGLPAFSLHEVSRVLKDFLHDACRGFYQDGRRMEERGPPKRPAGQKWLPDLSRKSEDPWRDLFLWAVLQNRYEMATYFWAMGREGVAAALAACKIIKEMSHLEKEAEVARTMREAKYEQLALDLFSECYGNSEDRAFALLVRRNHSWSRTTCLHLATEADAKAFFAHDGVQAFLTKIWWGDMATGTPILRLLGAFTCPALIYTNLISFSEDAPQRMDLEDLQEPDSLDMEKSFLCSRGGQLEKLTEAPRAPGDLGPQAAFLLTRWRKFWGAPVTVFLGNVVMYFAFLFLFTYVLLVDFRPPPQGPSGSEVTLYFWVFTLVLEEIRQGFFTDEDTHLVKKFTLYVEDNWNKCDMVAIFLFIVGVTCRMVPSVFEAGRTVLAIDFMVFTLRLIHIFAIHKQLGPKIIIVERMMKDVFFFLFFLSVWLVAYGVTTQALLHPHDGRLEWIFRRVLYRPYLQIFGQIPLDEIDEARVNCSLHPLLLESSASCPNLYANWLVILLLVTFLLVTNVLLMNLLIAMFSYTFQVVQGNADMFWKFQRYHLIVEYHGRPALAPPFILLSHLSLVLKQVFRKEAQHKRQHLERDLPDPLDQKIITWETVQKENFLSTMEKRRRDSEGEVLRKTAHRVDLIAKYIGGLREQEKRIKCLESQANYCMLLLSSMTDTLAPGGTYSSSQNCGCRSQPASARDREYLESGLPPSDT

[34] = target: Transient receptor potential cation channel subfamily V member 1 (Homo sapiens, UniProt Q8NER1); test: Agonist activity at human TRPV1
[35] = target: Transient receptor potential cation channel subfamily M member 8 (Homo sapiens, UniProt Q7Z2W7); test: Agonist activity at human TRPM8 expressed in HEK cells assessed as increase in intracellular calcium level measured for 5 mins by FLIPR assay; format: cell-based
[36] = target: Transient receptor potential cation channel subfamily A member 1 (Homo sapiens, UniProt O75762); test: Agonist activity at human TRPA1 expressed in HEK cells assessed as increase in intracellular calcium level measured for 5 mins by FLIPR assay; format: cell-based
[37] = target: Transient receptor potential cation channel subfamily V member 4 (Homo sapiens, UniProt Q9HBA0); test: Agonist activity at human TRPV4
[38] = Solubility of the compound in JP1 solution at pH 1.2 measured after 3 hrs by UHPLC analysis; format: physicochemical
[39] = Solubility of the compound in JP2 solution at pH 6.8 measured after 3 hrs by UHPLC analysis; format: physicochemical
[40] = tested on: MDR1 (multidrug resistance mutation-1 as written); test: Apparent permeability across apical to basolateral side in LLC-PK1 cells overexpressing multidrug resistance mutation-1; format: ADME, cell-based, Sus scrofa; conditions: pig
[41] = tested on: MDR1 (multidrug resistance mutation-1 as written); test: Apparent permeability across basolateral to apical side in LLC-PK1 cells overexpressing multidrug resistance mutation-1; format: ADME, cell-based, Sus scrofa; conditions: pig

Chain of Transient receptor potential cation channel subfamily M member 4 (Q8TD43 whole entry): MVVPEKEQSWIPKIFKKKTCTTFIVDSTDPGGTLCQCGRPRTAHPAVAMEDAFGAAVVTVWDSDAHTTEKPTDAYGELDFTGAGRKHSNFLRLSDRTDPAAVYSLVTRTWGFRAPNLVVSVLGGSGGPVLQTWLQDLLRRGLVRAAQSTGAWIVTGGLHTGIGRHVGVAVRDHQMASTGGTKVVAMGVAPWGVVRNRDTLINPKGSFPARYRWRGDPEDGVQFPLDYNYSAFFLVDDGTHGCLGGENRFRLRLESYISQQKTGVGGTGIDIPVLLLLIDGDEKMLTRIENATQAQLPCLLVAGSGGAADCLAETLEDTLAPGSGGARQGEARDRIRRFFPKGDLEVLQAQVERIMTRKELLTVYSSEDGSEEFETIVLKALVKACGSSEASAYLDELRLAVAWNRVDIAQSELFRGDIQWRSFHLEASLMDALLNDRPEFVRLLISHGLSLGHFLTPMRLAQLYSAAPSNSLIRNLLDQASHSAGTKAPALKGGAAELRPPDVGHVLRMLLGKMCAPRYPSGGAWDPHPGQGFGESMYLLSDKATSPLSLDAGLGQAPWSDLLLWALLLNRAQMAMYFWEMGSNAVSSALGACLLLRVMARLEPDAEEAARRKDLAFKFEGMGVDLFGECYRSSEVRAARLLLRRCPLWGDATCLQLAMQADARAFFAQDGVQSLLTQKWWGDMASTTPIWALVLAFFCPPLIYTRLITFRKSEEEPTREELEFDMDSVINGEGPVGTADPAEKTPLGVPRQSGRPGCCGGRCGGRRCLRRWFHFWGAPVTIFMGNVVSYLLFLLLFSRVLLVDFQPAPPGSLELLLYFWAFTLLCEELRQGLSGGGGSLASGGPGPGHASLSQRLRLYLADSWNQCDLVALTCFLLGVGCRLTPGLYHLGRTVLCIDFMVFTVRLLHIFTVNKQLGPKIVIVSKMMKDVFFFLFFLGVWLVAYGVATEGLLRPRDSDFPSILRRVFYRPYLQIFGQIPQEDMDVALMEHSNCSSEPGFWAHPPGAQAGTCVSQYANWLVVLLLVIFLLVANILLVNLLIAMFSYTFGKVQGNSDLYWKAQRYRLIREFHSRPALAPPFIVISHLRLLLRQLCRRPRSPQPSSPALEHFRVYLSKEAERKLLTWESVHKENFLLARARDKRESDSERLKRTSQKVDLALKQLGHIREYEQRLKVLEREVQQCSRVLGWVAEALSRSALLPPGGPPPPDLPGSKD
Chain of Transient receptor potential cation channel subfamily M member 8 (Q7Z2W7 whole entry): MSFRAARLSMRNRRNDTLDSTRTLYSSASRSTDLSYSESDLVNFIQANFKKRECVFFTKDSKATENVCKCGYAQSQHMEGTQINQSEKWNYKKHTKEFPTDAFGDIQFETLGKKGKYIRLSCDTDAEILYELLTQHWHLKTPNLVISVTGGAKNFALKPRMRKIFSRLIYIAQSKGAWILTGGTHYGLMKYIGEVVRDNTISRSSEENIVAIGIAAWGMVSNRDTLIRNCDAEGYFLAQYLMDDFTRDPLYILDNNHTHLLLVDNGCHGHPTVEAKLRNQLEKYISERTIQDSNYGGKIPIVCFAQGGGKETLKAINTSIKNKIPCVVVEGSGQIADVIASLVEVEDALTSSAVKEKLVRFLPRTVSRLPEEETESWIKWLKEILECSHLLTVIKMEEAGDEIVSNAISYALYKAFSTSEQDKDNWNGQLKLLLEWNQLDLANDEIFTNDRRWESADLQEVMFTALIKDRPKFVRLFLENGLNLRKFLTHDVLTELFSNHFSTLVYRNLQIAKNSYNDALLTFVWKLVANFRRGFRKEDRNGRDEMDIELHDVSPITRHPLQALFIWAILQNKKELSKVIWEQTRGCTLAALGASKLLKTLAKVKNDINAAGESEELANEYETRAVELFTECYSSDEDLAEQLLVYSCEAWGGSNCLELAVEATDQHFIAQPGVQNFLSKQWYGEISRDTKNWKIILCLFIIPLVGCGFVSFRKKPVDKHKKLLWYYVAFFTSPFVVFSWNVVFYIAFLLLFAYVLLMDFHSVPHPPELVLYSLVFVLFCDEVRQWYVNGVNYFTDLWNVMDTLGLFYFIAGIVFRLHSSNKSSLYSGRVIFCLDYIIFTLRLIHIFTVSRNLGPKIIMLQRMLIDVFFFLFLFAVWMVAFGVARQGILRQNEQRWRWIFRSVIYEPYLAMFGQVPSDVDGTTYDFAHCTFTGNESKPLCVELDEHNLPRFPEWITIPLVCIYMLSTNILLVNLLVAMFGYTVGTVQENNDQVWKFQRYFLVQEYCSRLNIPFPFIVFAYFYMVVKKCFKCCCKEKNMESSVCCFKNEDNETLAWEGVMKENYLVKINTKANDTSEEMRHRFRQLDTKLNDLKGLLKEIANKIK
Chain of Transient receptor potential cation channel subfamily V member 4 (Q9HBA0 whole entry): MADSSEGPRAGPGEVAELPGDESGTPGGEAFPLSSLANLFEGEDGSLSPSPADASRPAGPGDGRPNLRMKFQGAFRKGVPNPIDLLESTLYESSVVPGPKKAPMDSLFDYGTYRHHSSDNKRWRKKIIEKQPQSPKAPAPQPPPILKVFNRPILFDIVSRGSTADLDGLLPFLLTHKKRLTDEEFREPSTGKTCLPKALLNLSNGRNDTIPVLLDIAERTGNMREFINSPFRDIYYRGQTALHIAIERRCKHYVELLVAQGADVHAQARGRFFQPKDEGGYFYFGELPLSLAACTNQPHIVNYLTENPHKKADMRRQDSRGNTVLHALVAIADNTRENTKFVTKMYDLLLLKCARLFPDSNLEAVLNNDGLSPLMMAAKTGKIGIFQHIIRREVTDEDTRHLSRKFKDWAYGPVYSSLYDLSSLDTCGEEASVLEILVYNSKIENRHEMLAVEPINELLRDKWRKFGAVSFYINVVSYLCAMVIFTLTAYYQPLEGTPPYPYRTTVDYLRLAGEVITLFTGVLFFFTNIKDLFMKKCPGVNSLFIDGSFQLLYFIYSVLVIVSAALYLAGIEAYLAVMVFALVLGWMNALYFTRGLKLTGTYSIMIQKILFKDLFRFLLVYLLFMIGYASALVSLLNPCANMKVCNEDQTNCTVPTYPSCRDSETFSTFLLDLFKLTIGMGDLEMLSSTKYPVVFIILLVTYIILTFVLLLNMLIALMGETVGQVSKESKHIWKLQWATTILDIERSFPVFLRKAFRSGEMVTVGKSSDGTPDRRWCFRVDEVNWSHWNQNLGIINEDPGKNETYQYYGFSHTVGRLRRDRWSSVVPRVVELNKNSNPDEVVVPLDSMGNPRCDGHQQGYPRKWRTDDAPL
Chain of Transient receptor potential cation channel subfamily V member 1 (Q8NER1 whole entry): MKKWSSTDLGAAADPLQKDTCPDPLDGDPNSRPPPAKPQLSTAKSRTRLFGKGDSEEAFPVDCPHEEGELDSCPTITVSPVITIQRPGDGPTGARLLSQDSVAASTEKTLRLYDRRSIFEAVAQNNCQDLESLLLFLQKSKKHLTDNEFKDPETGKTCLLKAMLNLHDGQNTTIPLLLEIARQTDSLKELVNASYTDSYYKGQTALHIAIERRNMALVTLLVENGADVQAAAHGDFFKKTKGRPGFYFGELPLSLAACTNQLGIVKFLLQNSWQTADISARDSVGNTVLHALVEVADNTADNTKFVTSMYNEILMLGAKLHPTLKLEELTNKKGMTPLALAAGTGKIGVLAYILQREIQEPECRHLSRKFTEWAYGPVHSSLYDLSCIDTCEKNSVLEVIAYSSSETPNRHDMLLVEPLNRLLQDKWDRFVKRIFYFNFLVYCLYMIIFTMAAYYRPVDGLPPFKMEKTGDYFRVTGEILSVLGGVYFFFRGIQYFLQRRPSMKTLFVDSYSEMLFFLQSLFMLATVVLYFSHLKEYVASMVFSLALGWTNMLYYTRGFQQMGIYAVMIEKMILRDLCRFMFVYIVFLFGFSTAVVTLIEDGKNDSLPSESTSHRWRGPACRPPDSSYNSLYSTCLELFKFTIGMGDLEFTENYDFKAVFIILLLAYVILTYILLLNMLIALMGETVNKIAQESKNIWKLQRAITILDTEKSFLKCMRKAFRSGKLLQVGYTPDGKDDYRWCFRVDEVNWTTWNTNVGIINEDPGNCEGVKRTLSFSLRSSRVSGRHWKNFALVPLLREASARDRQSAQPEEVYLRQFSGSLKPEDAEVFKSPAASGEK

half-life ([1]; C57BL/6, mouse): 5.1 h
half-life ([2]; liver microsomes): 1.53 h
EC50 [3]: 0.126 µM
clearance [5]: 92.3 mL/min/kg
Vd ([6]; C57BL/6, mouse, read-out: Vdss): 4.41 L/kg
half-life ([7]; C57BL/6, mouse): 1.1 h
half-life ([8]; C57BL/6, mouse): 2.9 h
t1/2 ([9]; mouse, po, 30 mg/kg): 4.4 h
half-life [10]: 5.5 h
Cmax [11]: 290 ng/mL
Cmax [12]: 700 ng/mL
AUC [13]: 848 ng·h/mL
Cmax [14]: 3667 ng/mL
Cmax [15]: 6020 ng/mL
AUC(0-inf) ([16]; C57BL/6, mouse): 181 ng·h/mL
AUC [17]: 3676 ng·h/mL
AUC [18]: 28050 ng·h/mL
AUC(0-inf) [19]: 49400 ng·h/mL
F [20]: 44%
F [21]: 74%
F [22]: 100%
bioavailability [23]: 100%
solubility [24]: 25300 µg/mL (≈ 79.7 mM)
solubility [25]: 201 µg/mL (≈ 0.635 mM)
Papp A→B [26]: 10.3 ×10⁻⁶ cm/s
Papp B→A [27]: 15.4 ×10⁻⁶ cm/s
fraction unbound [28]: 0.121
fraction unbound [29]: 0.115
AURC [30]: 6.7 h
AURC [31]: 12.3 h
AURC [32]: 17.3 h
Structure (SMILES): N#Cc1ccc2c(c1)C[C@H](CO)N[C@@H]2c1cc(F)cc(Cl)c1 (racemic)
EC50 [4]: 11.5 µM

t1/2 ([1]; mouse, po, 100 mg/kg): 6.3 h
t1/2 ([2]; microsomes): 1.48 h
EC50 [3]: 0.0794 µM
Vdss ([6]; mouse, iv, 1 mg/kg): 3.507 L/kg
t1/2 ([7]; mouse, iv, 1 mg/kg): 0.8 h
t1/2 ([8]; mouse, po, 10 mg/kg): 4.3 h
half-life ([9]; C57BL/6, mouse): 5.4 h
Cmax [11]: 101 ng/mL
Cmax [12]: 301 ng/mL
AUC [13]: 395 ng·h/mL
Cmax [14]: 1396 ng/mL
AUC ([16]; mouse): 177.1 ng·h/mL
AUC [17]: 1716 ng·h/mL
AUC [18]: 8591 ng·h/mL
F [20]: 16.6%
F [21]: 20.3%
F [22]: 49%
EC50 [33]: 0.251 µM
EC50 [34]: > 15.8 µM
EC50 [35]: > 15.8 µM
EC50 [36]: > 15.8 µM
EC50 [37]: > 15.8 µM
solubility at 3 h [38]: 3500 µg/mL (≈ 11 mM)
solubility at 3 h [39]: 43 µg/mL (≈ 0.136 mM)
Papp A→B [40]: 26.6 ×10⁻⁶ cm/s
Papp B→A [41]: 13.7 ×10⁻⁶ cm/s
Structure (SMILES): N#Cc1ccc2c(c1)C[C@H](CO)N[C@@H]2c1cc(F)cc(Cl)c1
EC50 [4]: 52.5 µM
